Patent US20040186117A1, “Marker” (priority 2001, published 2004)
Values joined by “and” are separate entries in the source; they are usually repeats but may differ in a detail not shown here. Identical values can stand only once. “Also recorded” adds a separate entry of the source.

Key:
cyclin D1 in HT29 cells = experiment: Western blotting for cyclin D1 expression in HT29 cells; conditions: HT29, 50 μM
[1] = system: c-FOS protein in HT29 cells; conditions: for effect on c-FOS protein level: HT29, 50 μM
[2] = system: RB phosphorylation (Ser780, Ser608) in HT29 cells; experiment: Western blotting for RB phosphorylation in HT29 cells; format: cell-based, human; conditions: for time of loss of RB phosphorylation after exposure: HT29, 50 μM; for effect on RB phosphorylation: HT29, equitoxic (3×96 h IC50) concentration, 24 h
Description: (§1) This antibody was selected as a representative marker for all tested phosphorylation sites of RB (see Section 2). […] A general loss of RB phosphorylation is indicated by a switch from a broad band to a thin, more rapidly migrating band for total RB (see Section 2, FIG. 9).
(§2) Samples were harvested for western blotting or for cell cycle analysis by FACS. […] Since validating the original phospho-specific antibodies, a Ser608 antibody became available from Dr Sibylle Mittnacht. This site is potentially phosphorylated by CDK4/cyclin D1 and CDK2/cyclin A (Zarkowska and Mittnacht, J. Biol Chem (1997) 9:272 12738-46).

[3] = system: ELK-1 phosphorylation (Ser383) in HT29 cells
[4] = system: ERK1/2 phosphorylation in HT29 cells; experiment: Western blotting for phospho-ERK1/2 in HT29 cells; format: cell-based, human; conditions: for effect on ERK phosphorylation: HT29, equitoxic (3×96 h IC50) concentration, 24 h
[5] = system: ERK1/2 phosphorylation in KM12 cells; experiment: Western blotting for phospho-ERK1/2 in KM12 cells; format: cell-based, human
[6] = system: RB phosphorylation (Ser780) in KM12 cells; conditions: KM12, 50 μM
Description: as §1, §2

[7] = HT29, 10 μM with 50 μM R-roscovitine

Structure (SMILES) | effect on cyclin D1 expression (cyclin D1 in HT29 cells) | effect on c-FOS protein level [1] | time of loss of RB phosphorylation after exposure [2] | effect on ERK phosphorylation [4] | effect on RB phosphorylation [2] | further results
CC[C@H](CO)Nc1nc(NCc2ccccc2)c2ncn(C(C)C)c2n1 (racemic) [roscovitine] | decreased levels | increased levels | 24 h |  |  | 
CC[C@H](CO)Nc1nc(NCc2ccccc2)c2ncn(C(C)C)c2n1 [R-roscovitine, 2-(R)-(1-ethyl-2-hydroxyethylamino)-6-benzylamino-9-isopropylpurine] | inhibited the expression | induction of c-FOS protein | 12 to 24 h and 24 h | induced ERK phosphorylation | inhibited RB phosphorylation | effect on ELK-1 phosphorylation ([3]; HT29, 50 μM, after 4 h): strong induction; time at which an increase of c-FOS protein was detected ([1]; HT29, 50 μM time course): 12 to 24 h; phospho-ERK1/2 level at 24 h ([4]; HT29, 50 μM time course): remaining above basal levels; time of onset of induction of ERK phosphorylation ([4]; HT29, 50 μM time course): 1 h; time at which induction of ERK phosphorylation was observed ([4]; HT29, 50 μM, experiment with U0126 (FIG. 5B)): 4 to 24 h; effect on phosphorylated ERK1/2 ([4]; HT29, increasing concentrations, 24 h exposure): increase of phosphorylated ERK1/2; kinetics of induction of ERK phosphorylation compared with HT29 ([5]; KM12, 50 μM time course): slower kinetics; effect on phosphorylated ERK1/2 ([5]; KM12, increasing concentrations, 24 h exposure): increase of phosphorylated ERK1/2; time of loss of RB phosphorylation after exposure [6]: 12 to 24 h
N#CC(=C(/N)Sc1ccccc1N)/C(C#N)=C(\N)Sc1ccccc1N [U0126, reference compound] |  |  |  |  |  | effect on R-roscovitine-induced ELK-1 phosphorylation [3, 7]: blocked the phosphorylation; effect on R-roscovitine-induced increase in c-FOS [1, 7]: blocked; effect on R-roscovitine-induced ERK phosphorylation [4, 7]: prevented the induction
O=C1Cc2c([nH]c3ccc([N+](=O)[O-])cc23)-c2ccccc2N1 [alsterpaullone] |  |  |  | fails to induce; also recorded: no effect upon ERK | failed to inhibit RB phosphorylation | 
CN1CC[C@H](c2c(O)cc(O)c3c(=O)cc(-c4ccccc4Cl)oc23)[C@H](O)C1 [flavopiridol] |  |  |  | fails to induce; also recorded: no effect upon ERK | failed to inhibit RB phosphorylation | 
CC(C)[C@H](CO)Nc1nc(Nc2cccc(Cl)c2)c2ncn(C(C)C)c2n1 [purvalanol A] |  |  |  | fails to induce; also recorded: failed to induce ERK phosphorylation | inhibited RB phosphorylation | 
